Test results reported in patent US5874272A, “Inosine-guanosine kinase” (Kyowa Hakko Kogyo Co., Ltd., priority 1998, dated 1999).

Columns and labels:
Format in all cases: biochemical
inosine-guanosine kinase [1] = biological target: T1, inosine-guanosine kinase (Escherichia coli, UniProt P0AEW6); experiment: Substrate specificity (phosphate-donor / phosphate-acceptor); conditions: for suitability as phosphate-donor (in words): 5 mM phosphate source instead of ATP, 300 mM KCl, 30° C., inosine as acceptor; for suitability as phosphate-acceptor (in words): ATP or dATP as phosphate-donor
T1 construct: made in house; host or cells: Escherichia coli
T1 sequence (P0AEW6 1-434): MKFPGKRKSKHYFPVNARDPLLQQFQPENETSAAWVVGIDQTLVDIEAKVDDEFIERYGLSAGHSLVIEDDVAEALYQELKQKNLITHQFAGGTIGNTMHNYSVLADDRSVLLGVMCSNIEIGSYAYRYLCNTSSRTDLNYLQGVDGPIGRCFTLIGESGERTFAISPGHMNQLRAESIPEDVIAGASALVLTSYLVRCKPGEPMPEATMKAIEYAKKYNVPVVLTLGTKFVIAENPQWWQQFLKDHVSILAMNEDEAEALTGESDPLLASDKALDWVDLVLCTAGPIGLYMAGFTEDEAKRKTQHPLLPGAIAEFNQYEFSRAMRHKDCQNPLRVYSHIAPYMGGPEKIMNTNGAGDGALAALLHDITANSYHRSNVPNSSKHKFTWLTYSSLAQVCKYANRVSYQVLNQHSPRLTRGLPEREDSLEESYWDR
Description: (§1) The activity of the inosine-guanosine kinase obtained is determined as follows. A reaction solution (hereafter referred to as reaction solution a) having a composition of 100 mM HEPES buffer (pH 7.2), 10 mM MgSO4, 50 mM KCl, 1 mM ATP and 1 mM inosine is brought into contact with the inosine-guanosine kinase in a concentration of about 10 μg protein/ml followed by reaction at 30° C. for about 30 minutes. During the course of reaction, a part of the reaction solution is subjected to sampling intermittently. After the reaction solution is diluted to 1/20 with 0.2M NaH2 PO4 (adjusted the pH to 2.6 with H3 PO4) to stop the reaction, an amount of 5'-IMP in the stopped reaction solution is quantitatively determined by HPLC. Analysis by HPLC is made by using 0.2M NaH2 PO4 (pH 2.6) at a flow rate of 1 ml/min. as an eluting solution and Asahipak GS-320H (manufactured by Asahi Chemical Co., Ltd.) as a column. Detection of components was made by the absorbance at UV absorbance at 254 nm as an index. Quantitative determination was made by comparing absorbancy with that of the standard.
In the method for determination of inosine-guanosine kinase activity described above, a reaction is carried out at 30° C. by changing the concentration of KCl to 300 mM in the composition of reaction solution a and adding various neutralized phosphate sources to the reaction solution instead of ATP in a final concentration of 5 mM. […] Where ATP or dATP is used as phosphate-donor, inosine and guanosine are preferred as phosphate-acceptor.
FIG. 1 relates to substrate specificity for inosine-guanosine kinase, wherein the ordinate represents an amount of 5'-IMP produced and the abscissa represents time.

inosine-guanosine kinase [2] = biological target: T1, inosine-guanosine kinase; experiment: Effect of added metal salts on inosine-guanosine kinase activity (inhibitor test); conditions: 300 mM KCl; for Relative Activity (%): 1 mM metal salt added to reaction solution a, 30° C., 30 minutes, no metal salt = 100; for inhibition of the enzyme by metal ions (in words): 1 mM metal salt
Description: as §1
In the method for determination of inosine-guanosine kinase activity described above, the activity is determined by reacting at 30° C. for 30 minutes except that the concentration of KCl is changed to 300 mM and 1 mM metal salt is added to the composition of reaction solution a. The activity is determined as a standard when no metal salt is added. The enzyme is inhibited by metal ions such as CO^2+, Cu^2+, Zn^2+, etc.

inosine-guanosine kinase [3] = biological target: T1, inosine-guanosine kinase; experiment: Activation of inosine-guanosine kinase by divalent or trivalent metal ion salts instead of MgSO4; conditions: for Produced IMP: 10 mM metal salt instead of MgSO4, 300 mM KCl; for activating action on the enzyme (in words): metal ion salt instead of MgSO4, 300 mM KCl
Description: as §1
In the method for determination of inosine-guanosine kinase activity described above, a reaction is carried out by changing the buffer to Tris-hydrochloride buffer (pH 8.0), and varying the concentration of KCl in the composition of reaction solution a. […] Next, activation is examined in the system where the concentration of KCl is changed to 300 mM in the composition of reaction solution a, by adding various divalent or trivalent metal ion salts instead of MgSO4.

inosine-guanosine kinase [4] = biological target: T1, inosine-guanosine kinase; experiment: K+ (KCl) dependency of inosine-guanosine kinase; conditions: Tris-hydrochloride buffer (pH 8.0); KCl varied, or 100 mM NaCl instead of KCl
Description: as §1
In the method for determination of inosine-guanosine kinase activity described above, a reaction is carried out by changing the buffer to Tris-hydrochloride buffer (pH 8.0), and varying the concentration of KCl in the composition of reaction solution a. […]

| SMILES | suitability as phosphate-donor (in words) (inosine-guanosine kinase [1]) | Relative Activity (%) (inosine-guanosine kinase [2]) | Produced IMP (inosine-guanosine kinase [3]) | further results |
| --- | --- | --- | --- | --- |
| Nc1ncnc2c1ncn2[C@@H]1O[C@H](COP(=O)(O)O)[C@@H](O)[C@H]1O [5'-AMP, adenosine monophosphate] | could not be phosphate-donors |  |  |  |
| Nc1ccn([C@@H]2O[C@H](COP(=O)(O)O)[C@@H](O)[C@H]2O)c(=O)n1 [5'-CMP, cytidine monophosphate] | could not be phosphate-donors |  |  |  |
| O=C(O)c1cc(=O)[nH]c(=O)n1[C@@H]1O[C@H](COP(=O)(O)O)[C@@H](O)[C@H]1O [5'-OMP, orotic acid monophosphate] | could not be phosphate-donors |  |  |  |
| Nc1ncnc2c1ncn2[C@@H]1O[C@H](COP(=O)(O)OP(=O)(O)O)[C@@H](O)[C@H]1O [ADP, adenosine diphosphate] | could not be phosphate-donors |  |  |  |
| Nc1ncnc2c1ncn2[C@@H]1O[C@H](COP(=O)(O)OP(=O)(O)OP(=O)(O)O)[C@@H](O)[C@H]1O [ATP, adenosine triphosphate] | good substrate |  |  |  |
| [Ba+2].[Cl-].[Cl-] [BaCl2] |  | 116% | 0 mM |  |
| [Co+2] [CO^2+] |  |  |  | inhibition of the enzyme by metal ions (in words) (inosine-guanosine kinase [2]): inhibited |
| [Ca+2].[Cl-].[Cl-] [CaCl2] |  | 107% | 0 mM |  |
| [Cl-].[Cl-].[Co+2] [CoCl2] |  | 32% | 0.01 mM |  |
| [Cl][Cu][Cl] [CuCl2] |  | 1% | 0 mM |  |
| [Cu+2] [Cu^2+] |  |  |  | inhibition of the enzyme by metal ions (in words) (inosine-guanosine kinase [2]): inhibited |
| [Cl][Fe][Cl] [FeCl2] |  | 112% | 0 mM |  |
| [Cl][Fe]([Cl])[Cl] [FeCl3] |  | 131% | 0 mM |  |
| Nc1nc2c(ncn2[C@@H]2O[C@H](COP(=O)(O)OP(=O)(O)OP(=O)(O)O)[C@@H](O)[C@H]2O)c(=O)[nH]1 [GTP, guanosine triphosphate] | could not be phosphate-donors |  |  |  |
| [K+] [K^+] |  |  |  | monovalent cation requirement for activation (in words) (inosine-guanosine kinase [4]): requires |
| [Cl-].[Cl-].[Mg+2] [MgCl2] |  |  | 0.60 mM |  |
| O=S(=O)([O-])[O-].[Mg+2] [MgSO4] |  |  | 0.68 mM |  |
| [Mg+2] [Mg^2+] |  |  |  | activating action on the enzyme (in words) (inosine-guanosine kinase [3]): exhibit an activating action |

| SMILES | suitability as phosphate-donor (in words) (inosine-guanosine kinase [1]) | Relative Activity (%) (inosine-guanosine kinase [2]) | Produced IMP (inosine-guanosine kinase [3]) | further results |
| --- | --- | --- | --- | --- |
| [Cl][Mn][Cl] [MnCl2] |  | 134% | 0.51 mM |  |
| O=S(=O)([O-])[O-].[Mn+2] [MnSO4] |  |  | 0.64 mM |  |
| [Mn+2] [Mn^2+] |  |  |  | activating action on the enzyme (in words) (inosine-guanosine kinase [3]): exhibit an activating action |
| [Cl-].[Na+] [NaCl] |  | 104% |  | monovalent cation requirement for activation (in words) (inosine-guanosine kinase [4]): no reaction proceeds |
| [F-].[Na+] [NaF] |  | 96% |  |  |
| O=c1ccn([C@@H]2O[C@H](COP(=O)(O)OP(=O)(O)OP(=O)(O)O)[C@@H](O)[C@H]2O)c(=O)[nH]1 [UTP, uridine triphosphate] | the reaction proceeds a little bit |  |  |  |
| CC(=O)[O-].CC(=O)[O-].[Zn+2] [Zn(CH3 COO)2] |  | 5% | 0 mM |  |
| O=S(=O)([O-])[O-].[Zn+2] [ZnSO4] |  | 5% | 0 mM |  |
| [Zn+2] [Zn^2+] |  |  |  | inhibition of the enzyme by metal ions (in words) (inosine-guanosine kinase [2]): inhibited |
| CC(=O)OP(=O)(O)O [acetylphosphoric acid] | could not be phosphate-donors |  |  |  |
| Nc1ncnc2c1ncn2[C@H]1C[C@H](O)[C@@H](COP(=O)(O)OP(=O)(O)OP(=O)(O)O)O1 [dATP, deoxyadenosine triphosphate] | good substrate |  |  |  |
| Nc1nc2c(ncn2[C@@H]2O[C@H](CO)[C@@H](O)[C@H]2O)c(=O)[nH]1 [guanosine] |  |  |  | suitability as phosphate-acceptor (in words) (inosine-guanosine kinase [1]): preferred |
| OC[C@H]1O[C@@H](n2cnc3c(O)ncnc32)[C@H](O)[C@@H]1O [inosine] |  |  |  | suitability as phosphate-acceptor (in words) (inosine-guanosine kinase [1]): preferred |
| O=P(O)(O)O [phosphoric acid] | could not be phosphate-donors |  |  |  |
| O=P(O)(O)OP(=O)(O)O [pyrophosphoric acid] | could not be phosphate-donors |  |  |  |
| O=P(O)(O)OP(=O)(O)OP(=O)(O)OP(=O)(O)O [tetrapolyphosphoric acid] | could not be phosphate-donors |  |  |  |
| O=P(O)(O)OP(=O)(O)OP(=O)(O)O [tripolyphosphoric acid] | could not be phosphate-donors |  |  |  |
